Results from PubChem BioAssay (NCI).
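Briefly, cells in 96-well plates were exposed to five compound concentrations for 48 h, and endpoints were estimated by linear interpolation. Abbreviation: GI50, concentration required for 50% inhibition of growth. TGI: total growth inhibition.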 Peptide text beside a SMILES is read from it. * marks the point of attachment. Boc = CC(C)(C)OC(=O)*

Assays:
Experiment in all cases: NCI tumour cell line growth inhibition, 48 h
[1] = test system: SF-295 CNS
[2] = test system: OVCAR-3 ovarian
[3] = test system: SR leukemia
[4] = test system: SNB-75 CNS
[5] = test system: TK-10 renal
[6] = test system: COLO 205 colon
[7] = test system: CAKI-1 renal
[8] = test system: MDA-MB-435
[9] = test system: LOX IMVI melanoma
[10] = test system: SW-620 colon
[11] = test system: OVCAR-5 ovarian
[12] = test system: EKVX NSCLC
[13] = test system: MDA-MB-231 breast
[14] = test system: DU-145 prostate
[15] = test system: IGROV1 ovarian
[16] = test system: U251 CNS
[17] = test system: HS 578T breast
[18] = test system: M14 melanoma
[19] = test system: K-562 leukemia
[20] = test system: ACHN renal
[21] = test system: NCI-H460 lung
[22] = test system: SK-MEL-28 melanoma
[23] = test system: SNB-19 CNS
[24] = test system: UO-31 renal
[25] = test system: HOP-62 NSCLC
[26] = test system: OVCAR-4 ovarian
[27] = test system: HL-60(TB) leukemia
[28] = test system: RXF 393 renal
[29] = test system: SK-OV-3 ovarian
[30] = test system: 786-0 renal
[31] = test system: HCT-15 colon
[32] = test system: NCI/ADR-RES ovarian
[33] = test system: RPMI-8226 leukemia
[34] = test system: BT-549 breast
[35] = test system: SK-MEL-2 melanoma
[36] = test system: PC-3 prostate
[37] = test system: HCT-116 colon
[38] = test system: A549 NSCLC
[39] = test system: HCC-2998 colon
[40] = test system: SK-MEL-5 melanoma
[41] = test system: OVCAR-8 ovarian
[42] = test system: UACC-62 melanoma
[43] = test system: KM12 colon
[44] = test system: HOP-92 NSCLC
[45] = test system: T-47D breast
[46] = test system: NCI-H226 lung
[47] = test system: CCRF-CEM leukemia
[48] = test system: A498 renal
[49] = test system: MCF7 breast
[50] = test system: HT29 colon
[51] = test system: MALME-3M melanoma
[52] = test system: MOLT-4 leukemia
[53] = test system: NCI-H23 lung
[54] = test system: NCI-H522 lung
[55] = test system: SN12C renal
[56] = test system: UACC-257 melanoma
[57] = test system: SF-268 CNS
[58] = test system: SF-539 CNS

## N#CC1C(N)=NNC12Nc1ccccc1N2 (stereo not given)
[1]
  GI50: 18.8 µM
  TGI: 69.4 µM
[2]
  GI50: 3.16 µM
  TGI: 19.4 µM
[3]
  GI50: 6.4 µM
  TGI: 36.8 µM
[4]
  GI50: 24.8 µM
  TGI: > 100 µM
[5]
  GI50: 30.7 µM
  TGI: 73.3 µM
[6]
  GI50: 16.5 µM
  TGI: 48.9 µM
[7]
  GI50: 11.7 µM
  TGI: 74.5 µM
[8]
  GI50: 14.1 µM
  TGI: 63.7 µM
[9]
  GI50: 26.7 µM
  TGI: > 100 µM
[10]
  GI50: 26.8 µM
  TGI: > 100 µM
[11]
  GI50: > 100 µM
  TGI: > 100 µM
[12]
  GI50: 14.9 µM
  TGI: 64.6 µM
[13]
  GI50: 3.04 µM
  TGI: 40.6 µM
[14]
  GI50: 10.8 µM
  TGI: > 100 µM
[15]
  GI50: 11.9 µM
  TGI: 71.3 µM
[16]
  GI50: 22.6 µM
  TGI: > 100 µM
[17]
  GI50: 4.8 µM
  TGI: 25.7 µM
[18]
  GI50: 65.9 µM
  TGI: > 100 µM
[19]
  GI50: 14 µM
  TGI: 78.6 µM
[20]
  GI50: 34.9 µM
  TGI: > 100 µM
[21]
  GI50: 13.6 µM
  TGI: 38.1 µM
[22]
  GI50: 27.9 µM
  TGI: > 100 µM
[23]
  GI50: 17.8 µM
  TGI: 91 µM
[24]
  GI50: 11.5 µM
  TGI: 84.9 µM
[25]
  GI50: 64.3 µM
  TGI: > 100 µM
[26]
  GI50: 18 µM
  TGI: 92.3 µM
[27]
  GI50: 52.4 µM
  TGI: > 100 µM
[28]
  GI50: 0.335 µM
  TGI: 7.27 µM
[29]
  GI50: 30 µM
  TGI: > 100 µM
[30]
  GI50: 45 µM
  TGI: > 100 µM
[31]
  GI50: 31.4 µM
  TGI: > 100 µM
[32]
  GI50: 24.5 µM
  TGI: 74.5 µM
[33]
  GI50: 2.91 µM
  TGI: 7.8 µM
[34]
  GI50: 6.55 µM
  TGI: 31.6 µM
[35]
  GI50: 15.1 µM
  TGI: 77.5 µM
[36]
  GI50: 22.2 µM
  TGI: > 100 µM
[37]
  GI50: 34.1 µM
  TGI: > 100 µM
[38]
  GI50: 9.43 µM
  TGI: > 100 µM
[39]
  GI50: 31.9 µM
  TGI: > 100 µM
[40]
  GI50: 4.11 µM
  TGI: 21.2 µM
[41]
  GI50: 0.2 µM
  TGI: 21.4 µM
[42]
  GI50: 3.28 µM
  TGI: 33.8 µM
[43]
  GI50: > 100 µM
  TGI: > 100 µM
[44]
  GI50: 2.2 µM
  TGI: 34.5 µM
[45]
  GI50: 50.3 µM
  TGI: > 100 µM

## CC(NC(=O)C(NC(=O)OC(C)(C)C)C(C)C)C(=O)N1CCCC1C(=O)O (stereo not drawn) (Boc-Val-Ala-Pro-OH; configuration not given here)
[4]
  GI50: 0.0101 µg/mL
  TGI: 0.09 µg/mL
[17]
  GI50: 38.1 µg/mL
[42]
  GI50: 36.2 µg/mL

## CC(C)OC(=O)c1ccc2[nH]c(O)c(C(=Nc3ccc(N(C)C(=O)CN4CCN(C)CC4)cc3)c3ccccc3)c2c1
[46]
  GI50: 1.1 µM
  TGI: 2.83 µM
[1]
  GI50: 1.19 µM
  TGI: 2.47 µM
[2]
  GI50: 0.55 µM
  TGI: 2.02 µM
[3]
  GI50: 0.0443 µM
  TGI: 0.721 µM
[4]
  GI50: 0.101 µM
  TGI: 1.54 µM
[47]
  GI50: 0.371 µM
  TGI: 3.33 µM
[5]
  GI50: 0.561 µM
  TGI: 2.52 µM
[48]
  GI50: 0.188 µM
  TGI: 1 µM
[6]
  GI50: 0.285 µM
  TGI: 1.41 µM
[7]
  GI50: 0.0952 µM
  TGI: 1.12 µM
[8]
  GI50: 1.07 µM
  TGI: 2.3 µM
[9]
  GI50: 0.298 µM
  TGI: 1.43 µM
[10]
  GI50: 0.369 µM
  TGI: 1.62 µM
[11]
  GI50: 1.51 µM
  TGI: 3.22 µM
[12]
  GI50: 1.11 µM
  TGI: 2.49 µM
[13]
  GI50: 0.16 µM
  TGI: 0.715 µM
[14]
  GI50: 0.408 µM
  TGI: 1.63 µM
[49]
  GI50: 0.485 µM
  TGI: 2.07 µM
[15]
  GI50: 0.0764 µM
  TGI: 1.24 µM
[16]
  GI50: 0.622 µM
  TGI: 2.4 µM
[17]
  GI50: 0.0994 µM
  TGI: 1.15 µM
[50]
  GI50: 0.28 µM
  TGI: 3.83 µM
[18]
  GI50: 0.451 µM
  TGI: 1.9 µM
[51]
  GI50: 0.859 µM
  TGI: 2.29 µM
[52]
  GI50: 0.274 µM
  TGI: 2.16 µM
[19]
  GI50: 0.0435 µM
  TGI: 2.06 µM
[20]
  GI50: 0.332 µM
  TGI: 1.4 µM
[53]
  GI50: 0.583 µM
  TGI: 2.42 µM
[21]
  GI50: 0.448 µM
  TGI: 1.89 µM
[22]
  GI50: 1.15 µM
  TGI: 2.52 µM
[23]
  GI50: 0.921 µM
  TGI: 2.33 µM
[24]
  GI50: 0.278 µM
  TGI: 1.31 µM
[25]
  GI50: 0.471 µM
  TGI: 2.4 µM
[26]
  GI50: 1.02 µM
  TGI: 2.48 µM
[27]
  GI50: 0.357 µM
  TGI: 1.18 µM
[28]
  GI50: 0.224 µM
  TGI: 0.652 µM
[29]
  GI50: 0.308 µM
  TGI: 1.34 µM
[54]
  GI50: 1.22 µM
  TGI: 3.02 µM
[30]
  GI50: 0.327 µM
  TGI: 1.97 µM
[31]
  GI50: 0.372 µM
  TGI: 1.52 µM
[33]
  GI50: 0.385 µM
  TGI: 1.79 µM
[55]
  GI50: 0.0977 µM
  TGI: 1.6 µM
[34]
  GI50: 1.28 µM
  TGI: 2.68 µM
[35]
  GI50: 0.898 µM
  TGI: 2.72 µM
[56]
  GI50: 1.54 µM
  TGI: 3.57 µM
[36]
  GI50: 0.494 µM
  TGI: 2.17 µM
[37]
  GI50: 0.149 µM
  TGI: 1.28 µM
[57]
  GI50: 0.387 µM
  TGI: 2 µM
[58]
  GI50: 0.318 µM
  TGI: 1.16 µM
[38]
  GI50: 0.389 µM
  TGI: 2.18 µM
[39]
  GI50: 0.792 µM
  TGI: 2.21 µM
[40]
  GI50: 0.541 µM
  TGI: 1.8 µM
[41]
  GI50: 0.622 µM
  TGI: 3.17 µM
[42]
  GI50: 1.32 µM
  TGI: 3.01 µM
[43]
  GI50: 0.0251 µM
  TGI: 1.56 µM
[44]
  GI50: 0.243 µM
  TGI: 1.71 µM
[45]
  GI50: 1.2 µM
  TGI: 3.6 µM

## N=C(N)c1ccc(-c2ccc(-c3ccc(Cl)cc3)o2)nc1
[7]
  GI50: 1.42 µM
  TGI: 2.74 µM
